According to patent US11062797B2, “Method and system for obtaining and using pharmacokinetic data in drug administration” (Continuous Precision Medicine, priority 2014, dated 2021):
Several values for one entry are separate records, joined by “and”; a condition that tells them apart may be missing. Equal entries are not always repeated. Where two headings read alike, the source gives them in different places.

What was measured:
DISE patients = conditions: cited from earlier work; for average time for the procedures: DeVito et al.
[1] = Nominal Cortinez model; cited from earlier work
patients with severe OSA = test system: patients with severe OSA
Description: Ninety-seven (97) patients were enrolled in a prospective study of transoral robotic resection of the tongue base; the examples described below provided a secondary outcome measure of that study. […] The apnea-hypopnea index (AHI) for each patient was recorded from the sleep study. For each patient the saturation nadirs from the sleep study and DISE were paired for statistical analysis. […] The system utilizes the Cortinez pharmacokinetic model (Cortinez et al., Br J Anaesth. 2010; 105:448-56.) and the Johnson pharmacodynamic model (Johnson et al., Anesth Analg. 2008; 106:471-9.) to determine an infusion sequence comprised of a bolus, initial infusion, secondary infusion, and a time for transition from the initial to secondary infusion using the age and weight of the individual patient. This sequence minimizes the difference between the predicted probability of loss of responsiveness and a linear ramp. This is termed probability ramp control (PRC). A brief description of the mathematical approach can be found below. The MATLAB® program (an embodiment of the system) performed the calculations, indicated the time to perform the transition to the second infusion, and logged the time at which obstruction was noted.
All DISE studies were performed in an operating room with standard monitors and resuscitation equipment. A single otorhinolaryngologist performed each nasopharyngoscopy. […] All DISE patients received 2 liters per minute supplemental oxygen via a nasal cannula placed in the mouth. Supplemental oxygen was not used during polysomnography studies (as is typical for this procedure). Pulse oximetry data was recorded for subsequent analysis from a Nellcor pulse oximeter (Covidien, Mansfield, Mass.) at 30-second intervals by the DocuSys anesthesia record keeping system. […] A Baxter AS50 pump (Baxter, Deerfield, Ill.) was programmed with the initial bolus and infusion rates as determined by the control system. […] With the bronchoscope in position to observe the velopharynx, the sedation sequence proceeded until the onset of obstruction was noted. This was identified as the obstruction clinical endpoint. Observation of the pharynx was performed for a sufficient period to obtain images of the anatomic site(s) of obstruction. The infusion was then terminated and the patient allowed to recover. Patient characteristics and derived pharmacokinetic measures were assessed for normal distribution using the Lilliefors test at 5% significance level using the Statistics Toolbox of MATLAB® 8.0 (MathWorks, Natick, Mass.). […] Comparison of saturation nadirs from DISE and polysomnography was performed with both the paired and unpaired Student's t-test. […] No power analysis was performed for this study, as it was a secondary outcome measure for the larger study of transoral robotic surgery.

[2] = test system: endoscopic sedation patients; conditions: anesthetist-administered propofol sedation; cited from earlier work
[3] = test system: patients scheduled for elective esophagogastroduodenoscopy (EGD); conditions: for Maximum Effect Site: Cortinez model estimate; for Maximum Effect Site / Target Effect Site / Time to target: median (IQR); for Target Effect Site: at loss of responsiveness to nasopharyngeal airway placement; for patients with oxygen saturation values below 90%: 100% oxygen via Robertazzi airway
Description: In addition to ASA standard monitors, respiratory inductance plethysmography (RIP) (Ambulatory Monitoring Inc, Armonk, N.Y.), SEDLine® patient state index (PSI) (Masimo Corp, Irvine, Calif.) and RAD87 pulse oximeter (Masimo Corp, Irvine, Calif.) were applied. All patients received 50 μg of fentanyl immediately prior to initiation of sedation. […] In the experimental arm, patient age and weight were used by the PRC algorithm to calculate bolus, infusion1, infusion2, and time for transition from infusion1 to infusion2. These numbers were reviewed by an investigator prior to initiation of sedation, and when the patient could tolerate airway placement, the software determined the maintenance infusion to maintain the effect-site concentration at the value existing at that time. Custom software written in Labview 2012 (National Instruments, Austin, Tex.) performed these calculations, transmitted the infusion rates to a Graseby 3400 pump (Marcal Medical, Millersville, Md.), and acquired data from the monitors.
All patients were preoxygenated using a Mapleson circuit at oxygen flows greater than 10 liters per minute. Following placement of the Robertazzi airway, the Mapleson circuit was connected to the airway via the connector from an endotracheal tube and the adjustable pressure limit valve closed, assuring continuous flow of 100% oxygen into the hypopharynx.
In experimental patients, the CRNA could request additional boluses or changes in infusion rates as they saw fit. […] This measure is reported in two ways. The first is termed “adjustment dose”, which is the cumulative absolute value of the difference between the intended trajectory and the actual administration. The second is the “intended ratio”, which is the ratio of the dose delivered on the intended trajectory and the actual administration. These measures are depicted in FIG. 7. In FIG. 7, the dotted line indicates the actual infusion rates, while the solid line indicates the intended trajectory (fixing the infusion rate at 300 μg/kg/min).
Ventilatory depression was assessed from respiratory inductance plethysmography signals. The signals were filtered by ensemble empirical mode decomposition employing 450 realizations and noise scaled to 40% of signal power. The dominant mode was used for the Huang-Hilbert Transform (HHT). Minute ventilation was computed as the product of the respiratory rate times the magnitude of volume change at one second intervals. Baseline ventilation was determined from several breaths prior to initiation of sedation; subsequent measurements were normalized by this baseline value. These values were grouped into one minute epochs and the median of values less than 100% obtained. Values above 100% were excluded for two reasons.
Oxygen saturation was acquired from the RAD87 at one second intervals, as was the patient state index. Obvious artifacts such as sensor dislodgement were excluded from analysis. Desaturation is reported as cumulative time below specified saturation in the range from 54% to 90%.
Effect site estimates were calculated using the Cortinez model employing the nominal values, with an adjoined effect compartment. The ke0 was chosen to yield a time to peak effect of 1.6 minutes. MATLAB® code for the state-space implementation of this model with observation of the effect site is available on the OpenTCI website.

SMILES: CC(C)c1cccc(C(C)C)c1O [propofol]
- average time for the procedures (DISE patients; TCI group): 15.2 min
- patients demonstrating sedation instability (DISE patients; TCI group): 5%
- average time for the procedures (DISE patients; manual control group): 6.2 min
- patients demonstrating sedation instability (DISE patients; manual propofol bolus group): 65%
- Q2 [1]: 3.2 L/min
- V3 [1]: 53.8 L
- median saturation nadir during DISE (patients with severe OSA; 2 liters per minute supplemental oxygen, median ± IQR, polysomnography 81.0±11.25%): 91.4±5.1%
- predicted effect-site concentration for obstruction (patients with severe OSA; Cortinez model, ke0 for time to peak effect of 1.6 minutes): 4.2 ± 1.3 µg/mL
- median time to obstruction (patients with severe OSA; DISE, PRC infusion, n=97, median (IQR)): 3.8 (IQR 1.2) minutes
- mean predicted effect-site concentration of propofol at obstruction (patients with severe OSA; DISE, PRC infusion, Cortinez model with adjoined effect compartment): 4.2 ± 1.3 µg/mL
- adverse events (patients with severe OSA; DISE, all patients): no adverse events
- mean time to obstruction (patients with severe OSA; control system according to Example 1): 3.9 min
- lowest saturation measured (patients with severe OSA; oxygen at 2 liters per minute via oral cannula): 74%
- median saturation nadir during DISE (patients with severe OSA; sub-cohort of 7 patients whose nadir was not lower during polysomnography): 85%
- BIS values, mean and standard deviation [2]: 72.1±15.1
- Maximum Effect Site ([3]; Control (CRNA dosing)): 6.1 (3.5) μg/ml
- Target Effect Site ([3]; Control (CRNA dosing)): 4.8 (1.6) μg/ml
- Time to target ([3]; Control (CRNA dosing)): 2 (2.2) min
- Maximum Effect Site ([3]; Experimental (PRC)): 5.3 (4.6) NS μg/ml
- Target Effect Site ([3]; Experimental (PRC)): 4.9 (2.9) NS μg/ml
- Time to target ([3]; Experimental (PRC)): 3.9 (1.6) min and 3.9 (1.6) * min
- additional time to achieve endoscope placement ([3]; PRC system versus control): 111 s
- patients identified at targets below 3.9 μg/ml ([3]; control group (CRNA dosing)): No control patients
- patients with oxygen saturation values below 90% ([3]; control patients): 3
- patients identified at targets below 3.9 μg/ml ([3]; experimental group (PRC)): 5/20
- patients with targets below effect-site concentrations of 3.9 μg/ml ([3]; experimental group (PRC)): 20%
- patients with oxygen saturation values below 90% ([3]; experimental patients): 2
